Assay results taken from paper PMC5522071, “Preclinical development of G1T38: A novel, potent and selective inhibitor of cyclin dependent kinases 4/6 for use as an oral antineoplastic in patients with CDK4/6 sensitive tumors” (Oncotarget, 2017).

How the values were obtained:
CDK5/p25 = target: T1, CDK5/p25 (Homo sapiens, UniProt Q00535); assay type: biochemical; conditions: 12-point dose response, singlicate, at Km for ATP
T1 construct: purchased Nanosyn, Inc. (contract assay)

in vivo = conditions: C57BL/6, mouse, po
[1] = system: MMTV-Neu GEMM (Her2/Neu) tumors; assay: Her2Neu breast cancer GEMM; assay type: in vivo, mice; conditions: 100 mg/kg in diet, after 21 days of treatment
Method: After 21 days, tumor progression was calculated using the formula: (21 day volume – initial volume)/ initial volume x 100. […] Yellow bar represents duration of treatment. Statistics were completed using linear regression analysis of time during treatment (28 days). Error bars represent SEM. **p≤0.01.
Female MMTV-NEU mice (Jackson Labs Strain 002376) were used to test the efficacy of G1T38 (100 mpk, medicated diet). Drug was incorporated into diet by Research Diets (New Brunswick, NJ) using the following parameters; 25 gm mouse eating 3.2 gm of food/day. Mice were monitored for tumor development by palpating them weekly as per University of North Carolina at Chapel Hill Lineberger Mouse Phase 1 Unit (MP1U) protocol. At time of treatment, body composition was assessed and weight measurements (in grams) were recorded and used as a measure of gross toxicity. Mice were monitored until euthanized at predetermined humane endpoints per approved University of North Carolina at Chapel Hill IACUC protocols.

CDK2/Cyclin E = CDK2/Cyclin E (Homo sapiens, UniProt P24941); conditions: read-out: IC50 CDK2/Cyclin E, Mean; 12-point dose response, singlicate, at Km for ATP
Method: The assays were completed using microfluidic kinase detection technology (Caliper Assay Platform). The compounds were tested in 12-point dose response format in singlicate at the Km for ATP. Phosphoacceptor substrate peptide concentration used was 1 μM and Staurosporine was used as the reference compound for all assays.

[2] = system: myeloid progenitors (Mac1+ Gr1+); assay: EdU incorporation in bone marrow; conditions: any treatment cohort (10, 50, 100 mg/kg), 7 days, 12 hours post-treatment
neutrophils = assay: GLP 28-day toxicology study, CBC; assay type: in vivo, beagle dogs; conditions: 1, 2.5 and 5 mg/kg/day
Method: However, from 14 to 25 days, cells reached a steady state level, which was readily reversible once dosing was stopped (Figure 5E).
Beagle dogs (5/ sex) were dosed once daily for 28 consecutive days via oral gavage. The dose levels were 1, 2.5 and 5 mg/kg/day and administered at a dose volume of 5 mL/kg. Hematology samples (1ml/ time point) were collected in K3EDTA tubes twice pre-test and then on days 7, 14, 21, and 25 during the dosing period and on days 35, and 42 during the recovery period. Complete blood counts were performed and results reported. All studies were conducted utilizing methods and protocols in accordance with IACUC approval at MPI Research (Mattawan, MI).

T1 sequence (Q00535 whole entry): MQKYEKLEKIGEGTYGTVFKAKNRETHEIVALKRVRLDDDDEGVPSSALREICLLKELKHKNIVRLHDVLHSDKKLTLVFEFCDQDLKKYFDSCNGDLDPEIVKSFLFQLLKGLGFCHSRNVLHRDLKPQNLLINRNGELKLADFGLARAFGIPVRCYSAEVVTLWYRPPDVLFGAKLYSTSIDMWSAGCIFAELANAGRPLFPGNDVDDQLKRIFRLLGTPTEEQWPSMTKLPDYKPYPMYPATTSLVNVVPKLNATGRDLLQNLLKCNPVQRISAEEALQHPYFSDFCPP
T1 sequence (Q15078 99-307 partner limits assumed): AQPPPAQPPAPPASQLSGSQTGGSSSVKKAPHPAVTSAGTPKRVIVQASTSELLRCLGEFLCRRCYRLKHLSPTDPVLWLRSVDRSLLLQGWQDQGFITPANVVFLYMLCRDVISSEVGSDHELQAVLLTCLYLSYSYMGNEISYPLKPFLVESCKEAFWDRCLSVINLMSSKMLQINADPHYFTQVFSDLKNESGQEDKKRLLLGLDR

`CC(C)N1CCN(c2ccc(Nc3ncc4cc5n(c4n3)C3(CCCCC3)CNC5=O)nc2)CC1.Cl.Cl` [G1T38, 2′-((5-(4-isopropylpiperazin-1-yl)pyridin-2-yl)amino)-7′, 8′dihydro-6′Hspiro[cyclohexane1,9′ pyrazino[1′,2′:1,5]pyrrolo[2,3-d]pyrimidin]-6′-one di-hydrochloride] gave an IC50 (CDK5/p25) of 1200 nM, a concentration at 24 h (in vivo) of about 22 nM and a tumor regression [1] of 38%. The IC50 (CDK2/Cyclin E) was 3600 nM, the “myeloid progenitor proliferation compared to vehicle” value [2] was “no differences” and the “neutrophil course during 28 days daily oral treatment” value (neutrophils) was “neutrophils decreased rapidly in a dose dependent manner during the first 14 days”.
